Results reported in patent US7211572B2 (Japan Tobacco Inc., priority 2003, dated 2007).
Counter-ions that a name gives are not always drawn.

These molecules were tested against T1, HIV integrase (Human immunodeficiency virus type 1 group M subtype B, UniProt P12497, F1332H) (assay: Determination of enzyme (HIV integrase) inhibitory activity). Details: recombinant HIV integrase (F185H), strand transfer ELISA, absorbance at 450 nm.
T1 construct: HIV integrase full length gene; made in house; host or cells: Escherichia coli BL21(DE3), plasmid pET21a-INH
Type: biochemical
Outline: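 Full-length integrase with F185H, expressed in E. coli and purified, was reacted for 60 min at 37 °C with compound and biotinylated donor DNA bound to streptavidin plates. Target DNA was added for 10 min, then anti-digoxigenin-peroxidase detection at A450; IC50 from % inhibition versus enzyme-free blank.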

SMILES	IC50 [nM]
CS(=O)(=O)c1ccc(CNC(=O)c2cn3c(c(O)c2=O)C(=O)N(Cc2ccc(F)cc2)CC3)cc1 [Example 421, N-(4-methanesulfonylbenzyl)-2-(4-fluorobenzyl)-9-hydroxy-1,8-dioxo-1,3,4,8-tetrahydro-2H-pyrido[1,2-a]pyrazine-7-carboxamide hydrochloride]	10 to 100
CC(C)(C)C(O)Cc1cc(=O)c(O)c2n1CCN(Cc1ccc(F)cc1)C2=O (stereo not drawn) [Example 422, 2-(4-fluorobenzyl)-9-hydroxy-6-(2-hydroxy-3,3-dimethylbutyl)-3,4-dihydro-2H-pyrido[1,2-a]pyrazine-1,8-dione hydrochloride]	10 to 100
CC(=O)Nc1cn2c(C)cn(Cc3cccc(Cl)c3)c(=O)c2c(O)c1=O [Example 423, N-[2-(3-chlorobenzyl)-9-hydroxy-4-methyl-1,8-dioxo-1,8-dihydro-2H-pyrido[1,2-a]pyrazin-7-yl]acetamide]	10 to 100
COCc1c(-c2ccccn2)c(=O)c(O)c2n1CCN(Cc1ccc(F)cc1)C2=O [Example 424, 2-(4-fluorobenzyl)-9-hydroxy-6-methoxymethyl-7-(pyridin-2-yl)-3,4-dihydro-2H-pyrido[1,2-a]pyrazine-1,8-dione hydrochloride]	10 to 100
COCC(C)(C)C(=O)c1cn2ccn(Cc3ccc(F)cc3)c(=O)c2c(O)c1=O [Example 425, 2-(4-fluorobenzyl)-9-hydroxy-7-(3-methoxy-2,2-dimethylpropionyl)-2H-pyrido[1,2-a]pyrazine-1,8-dione hydrochloride]	< 10
COc1ccnc(CNC(=O)c2cn3c(c(O)c2=O)C(=O)N(Cc2ccc(F)cc2)CC3)n1 [Example 426, N-(4-methoxypyrimidin-2-ylmethyl)-2-(4-fluorobenzyl)-9-hydroxy-1,8-dioxo-1,3,4,8-tetrahydro-2H-pyrido[1,2-a]pyrazine-7-carboxamide hydrochloride]	10 to 100
CC(C)(C)C(=O)Cc1c(C(=O)C(C)(C)C)c(=O)c(O)c2n1CCN(Cc1ccc(F)cc1)C2=O [Example 427, 6-(3,3-dimethyl-2-oxobutyl)-7-(2,2-dimethylpropionyl)-2-(4-fluorobenzyl)-9-hydroxy-3,4-dihydro-2H-pyrido [1,2-a]pyrazine-1,8-dione hydrochloride]	10 to 100
CC(=O)Nc1ccc(CNC(=O)c2cn3c(c(O)c2=O)C(=O)N(Cc2ccc(F)cc2)CC3)cc1 [Example 428, N-(4-acetylaminobenzyl)-2-(4-fluorobenzyl)-9-hydroxy-1,8-dioxo-1,3,4,8-tetrahydro-2H-pyrido[1,2-a]pyrazine-7-carboxamide]	10 to 100
O=c1ccn2c(CCO)cn(Cc3ccc(Cl)c(Cl)c3)c(=O)c2c1O [Example 429, 2-(3,4-dichlorobenzyl)-9-hydroxy-4-(2-hydroxyethyl)-2H-pyrido[1,2-a]pyrazine-1,8-dione hydrochloride]	10 to 100
CCC(O)c1cn(Cc2ccc(Cl)c(Cl)c2)c(=O)c2c(O)c(=O)ccn12 (stereo not drawn) [Example 430, 2-(3,4-dichlorobenzyl)-9-hydroxy-4-(1-hydroxypropyl)-2H-pyrido[1,2-a]pyrazine-1,8-dione]	10 to 100
O=c1ccn2c(CCCO)cn(Cc3ccc(Cl)c(Cl)c3)c(=O)c2c1O [Example 431, 2-(3,4-dichlorobenzyl)-9-hydroxy-4-(3-hydroxypropyl)-2H-pyrido[1,2-a]pyrazine-1,8-dione]	10 to 100
CC(C)C(O)c1cn(Cc2ccc(Cl)c(Cl)c2)c(=O)c2c(O)c(=O)ccn12 (stereo not drawn) [Example 432, 2-(3,4-dichlorobenzyl)-9-hydroxy-4-(1-hydroxy-2-methylpropyl)-2H-pyrido[1,2-a]pyrazine-1,8-dione]	< 10
